This is an account of results in US12454534B2, “Pyrrolo[2,3-b]pyrazines as HPK1 inhibitor and the use thereof” (BEIGENE, LTD., priority 2019, dated 2025).

In the assay the target is T1, HPK1 kinase (aa1-346, Life Technologies) (Homo sapiens, UniProt Q92918).
T1 construct: HPK1 kinase (aa1-346, Life Technologies); purchased Life Technologies
T1 sequence (Q92918 1-346): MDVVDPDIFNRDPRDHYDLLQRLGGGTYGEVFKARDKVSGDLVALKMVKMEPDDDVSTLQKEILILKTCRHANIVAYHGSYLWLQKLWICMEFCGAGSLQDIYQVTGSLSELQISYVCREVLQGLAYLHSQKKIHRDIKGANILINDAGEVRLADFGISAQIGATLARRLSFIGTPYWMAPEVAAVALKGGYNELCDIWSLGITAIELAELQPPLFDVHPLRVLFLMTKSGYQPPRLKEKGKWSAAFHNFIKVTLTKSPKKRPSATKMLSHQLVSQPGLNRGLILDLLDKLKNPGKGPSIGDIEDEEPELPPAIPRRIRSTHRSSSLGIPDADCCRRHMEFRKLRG
The assay is described as follows: HPK1 Kinase Activity Assay at 1 mM ATP (TR-FRET). The format is biochemical. As to conditions: HPK1 40 nM, read-out: Enzymatic activity IC50. The procedure: HPK1 Kinase Activity Assay at 1 mM ATP
Compounds disclosed herein were tested for inhibition of HPK1 kinase (aa1-346, Life Technologies) activity in assays based on the time-resolved fluorescence-resonance energy transfer (TR-FRET) methodology. The assays were carried out in 384-well low volume black plates in a reaction mixture containing HPK1 kinase (40 nM), 1 mM ATP, 0.5 μM STK1 substrate and 0-10 μM compound in buffer containing 50 mM HEPES, 0.01% BSA, 0.1 mM Orthovanadate, 10 mM MgCl2, 1 mM DTT, pH=7.0, 0.005% Tween-20. The kinase was incubated with the compounds disclosed herein or DMSO for 60 minutes at room temperature and the reaction was initiated by the addition of ATP and STK1 substrate. After reaction at room temperature for 120 minutes, an equal volume of stop/detection solution was added according to the manufacturer's instruction (CisBio). The stop/detection solution contained STK Antibody-Cryptate and XL665-conjugated streptavidin in Detection Buffer. The TR-FRET signals (ratio of fluorescence emission at 665 nm over emission at 620 nm with excitation at 337 nm wavelength) were recorded on a PHERAstar FS plate reader (BMG Labtech). Phosphorylation of STK1 substrate led to the binding of STK Antibody-Cryptate to the biotinylated STK1 substrate, which places fluorescent donor (Eu^3+ cryptate) in close proximity to the accepter (Streptavidin-XL665), thus resulting in a high degree of fluorescence resonance energy transfer. The inhibition of HPK1 in presence of increasing concentrations of compounds was calculated based on the ratio of fluorescence at 665 nm to that at 620 nm. The IC50 for each compound was derived from fitting the data to the four-parameter logistic equation by Graphpad Prism software.
On the technique in general: Time-resolved FRET reads energy transfer from a long-lived donor to a nearby acceptor.

Regarding `Cc1cc(-c2c[nH]c3ncc(-c4cc(C)c5c(c4)CN(C)CC5)nc23)ccc1C(=O)N1CC(O)C1` [Example 17, (4-(2-(2,5-dimethyl-1,2,3,4-tetrahydroisoquinolin-7-yl)-5H-pyrrolo[2,3-b]pyrazin-7-yl)-2-methylphenyl) (3-hydroxyazetidine-1-yl)methanone], the IC50 worked out at 24 nM.

In the case of `Cc1cc(-c2cnc3[nH]cc(-c4ccc(C(=O)N(C)C[C@H](C)O)cc4)c3n2)cc2c1CCN(C)C2` [Example 5, (S)-4-(2-(2,5-dimethyl-1,2,3,4-tetrahydroisoquinolin-7-yl)-5H-pyrrolo[2,3-b]pyrazin-7-yl)-N-(2-hydroxypropyl)-N-methylbenzamide], the IC50 was 21 nM.

In the case of `COc1cc(-c2cnc3[nH]cc(-c4cc(F)c(C(=O)N(C)C[C@@H]5CCOC5)c(F)c4)c3n2)cc2c1CN(C)CC2` [Example 7A, (S)-2,6-difluoro-4-(2-(8-methoxy-2-methyl-1,2,3,4-tetrahydroisoquinolin-6-yl)-5H-pyrrolo[2,3-b]pyrazin-7-yl)-N-methyl-N-((tetrahydrofuran-3-yl)methyl)benzamide], the IC50 was 34 nM.

With `Cc1cc(-c2c[nH]c3ncc(-c4cc(C)c5c(c4)CN(C)CC5)nc23)ccc1C(=O)N(C)C[C@H](C)O` [Example 11, (S)-4-(2-(2,5-dimethyl-1,2,3,4-tetrahydroisoquinolin-7-yl)-5H-pyrrolo[2,3-b]pyrazin-7-yl)-N-(2-hydroxypropyl)-N, 2-dimethylbenzamide], the IC50 is 74 nM.

With `Cc1cc(-c2c[nH]c3ncc(-c4cc(C)c5c(c4)CN(CCC(=O)NC4CC4)CC5)nc23)ccc1C(=O)N(C)C` [Example 43, 4-(2-(2-(3-(cyclopropylamino)-3-oxopropyl)-5-methyl-1,2,3,4-tetrahydroisoquinolin-7-yl)-5H-pyrrolo[2,3-b]pyrazin-7-yl)-N, N, 2-trimethylbenzamide], the IC50 is 37 nM.

With `Cc1cc(-c2c[nH]c3ncc(-c4cc(C)c5c(c4)CN(C)CC5)nc23)ccc1C(=O)N(C)C[C@@H](C)O` [Example 4, (R)-4-(2-(2,5-dimethyl-1,2,3,4-tetrahydroisoquinolin-7-yl)-5H-pyrrolo[2,3-b]pyrazin-7-yl)-N-(2-hydroxypropyl)-N, 2-dimethylbenzamide], the IC50 came to 92 nM.

Turning to `Cc1cc(-c2c[nH]c3ncc(-c4cc(C)c5c(c4)CN(CCC(=O)N[C@H]4CCC[C@H]4O)CC5)nc23)ccc1C(=O)N(C)C` [Example 54, 4-(2-(2-(3-(((1S, 2R)-2-hydroxycyclopentyl)amino)-3-oxopropyl)-5-methyl-1,2,3,4-tetrahydroisoquinolin-7-yl)-5H-pyrrolo[2,3-b]pyrazin-7-yl)-N, N, 2-trimethylbenzamide], the IC50 was found to be 68 nM.

`Cc1cc(-c2c[nH]c3ncc(-c4cc(C)c5c(c4)CN(CCC(=O)N[C@H]4CC[C@H](O)C4)CC5)nc23)ccc1C(=O)N(C)C` [Example 56, 4-(2-(2-(3-(((1S, 3S)-3-hydroxycyclopentyl)amino)-3-oxopropyl)-5-methyl-1,2,3,4-tetrahydroisoquinolin-7-yl)-5H-pyrrolo[2,3-b]pyrazin-7-yl)-N, N, 2-trimethylbenzamide]: the IC50 was 93 nM.

Turning to `Cc1cc(-c2c[nH]c3ncc(-c4cc(C)c5c(c4)CN(CCC(=O)NC4(CO)CC4)CC5)nc23)ccc1C(=O)N(C)C` [Example 31, 4-(2-(2-(3-(1-(hydroxymethyl)cyclopropylamino)-3-oxopropyl)-5-methyl-1,2,3,4-tetrahydroisoquinolin-7-yl)-5H-pyrrolo[2,3-b]pyrazin-7-yl)-N, N, 2-trimethylbenzamide], the IC50 came out at 53 nM.

Take `Cc1cc(-c2cnc3[nH]cc(-c4ccc(C(=O)N5CC6(COC6)C5)cc4)c3n2)cc2c1CCN(C)C2` [Example 19, (4-(2-(2,5-dimethyl-1,2,3,4-tetrahydroisoquinolin-7-yl)-5H-pyrrolo[2,3-b]pyrazin-7-yl)phenyl) (2-oxa-6-azaspiro[3.3]heptan-6-yl)methanone]: the IC50 amounted to 13 nM.

Consider `Cc1cc(-c2cnc3[nH]cc(-c4ccc(C(=O)N(C)C[C@@H]5CCOC5)cc4)c3n2)cc2c1CCN(CCN1CCC(C)(O)CC1)C2` [Example 36, (S)-4-(2-(2-(2-(4-hydroxy-4-methylpiperidin-1-yl)ethyl)-5-methyl-1,2,3,4-tetrahydroisoquinolin-7-yl)-5H-pyrrolo[2,3-b]pyrazin-7-yl)-N-methyl-N-((tetrahydrofuran-3-yl)methyl)benzamide], for which the IC50 turned out to be 39 nM.

For `Cc1cc(-c2cnc3[nH]cc(-c4ccc(C(=O)N(C)C[C@@H](C)O)cc4)c3n2)cc2c1CCN(CCN1CCOCC1)C2` [Example 9, (R)—N-(2-hydroxypropyl)-N-methyl-4-(2-(5-methyl-2-(2-morpholinoethyl)-1,2,3,4-tetrahydroisoquinolin-7-yl)-5H-pyrrolo[2,3-b]pyrazin-7-yl)benzamide], the IC50 worked out at 62 nM.

For `Cc1cc(-c2cnc3[nH]cc(-c4ccc(C(=O)N(C)C[C@H](C)O)cc4)c3n2)cc2c1CCN(CCN1CCOCC1)C2` [Example 13, (S)—N-(2-hydroxypropyl)-N-methyl-4-(2-(5-methyl-2-(2-morpholinoethyl)-1,2,3,4-tetrahydroisoquinolin-7-yl)-5H-pyrrolo[2,3-b]pyrazin-7-yl)benzamide], the IC50 amounted to 45 nM.

As to `COc1cc(-c2cnc3[nH]cc(-c4ccc(C(=O)N(C)C)cc4)c3n2)cc2c1CN(C)CC2` [Example 22, 4-(2-(8-methoxy-2-methyl-1,2,3,4-tetrahydroisoquinolin-6-yl)-5H-pyrrolo[2,3-b]pyrazin-7-yl)-N, N-dimethylbenzamide], the IC50 amounted to 11 nM.

Take `Cc1cc(-c2cnc3[nH]cc(-c4ccc(C(=O)N(C)C)cc4)c3n2)cc2c1CCN(CCC(=O)N[C@H]1CC[C@H](O)CC1)C2` [Example 48, 4-(2-(2-(3-(((1r, 4r)-4-hydroxycyclohexyl)amino)-3-oxopropyl)-5-methyl-1,2,3,4-tetrahydroisoquinolin-7-yl)-5H-pyrrolo[2,3-b]pyrazin-7-yl)-N, N-dimethylbenzamide]: the IC50 came to 65 nM.

`Cc1cc(-c2c[nH]c3ncc(-c4cc(C)c5c(c4)CN(CCC(=O)N[C@H]4CC[C@H](O)CC4)CC5)nc23)ccc1C(=O)N(C)C` [Example 23, 4-(2-(2-(3-((trans-4-hydroxycyclohexyl)amino)-3-oxopropyl)-5-methyl-1,2,3,4-tetrahydroisoquinolin-7-yl)-5H-pyrrolo[2,3-b]pyrazin-7-yl)-N, N, 2-trimethylbenzamide]: the IC50 was found to be 122 nM.

With `Cc1cc(-c2cnc3[nH]cc(-c4ccc(C(=O)N(C)C[C@@H]5CCOC5)cc4)c3n2)cc2c1CCN(CCN1CCOCC1)C2` [Example 51, (S)—N-methyl-4-(2-(5-methyl-2-(2-morpholinoethyl)-1,2,3,4-tetrahydroisoquinolin-7-yl)-5H-pyrrolo[2,3-b]pyrazin-7-yl)-N-((tetrahydrofuran-3-yl)methyl)benzamide], the 50% inhibitory concentration (IC50) stood at 36 nM.

`Cc1cc(-c2cnc3[nH]cc(-c4ccc(C(=O)N(C)C[C@@H]5CCOC5)cc4)c3n2)cc2c1CCN(C)C2` [Example 35, (S)-4-(2-(2,5-dimethyl-1,2,3,4-tetrahydroisoquinolin-7-yl)-5H-pyrrolo[2,3-b]pyrazin-7-yl)-N-methyl-N-((tetrahydrofuran-3-yl)methyl)benzamide]: the IC50 was determined as 19 nM.

Turning to `Cc1cc(-c2c[nH]c3ncc(-c4cc(C)c5c(c4)CN(CCC(=O)NCC4(O)CC4)CC5)nc23)ccc1C(=O)N(C)C` [Example 32, 4-(2-(2-(3-((1-hydroxycyclopropyl)methylamino)-3-oxopropyl)-5-methyl-1,2,3,4-tetrahydroisoquinolin-7-yl)-5H-pyrrolo[2,3-b]pyrazin-7-yl)-N, N, 2-trimethylbenzamide], the IC50 came to 71 nM.

Consider `Cc1cc(-c2c[nH]c3ncc(-c4cc(C)c5c(c4)CN(CCC(=O)NCCN4CCN(C)CC4)CC5)nc23)ccc1C(=O)N(C)C` [Example 42, N, N, 2-trimethyl-4-(2-(5-methyl-2-(3-((2-(4-methylpiperazin-1-yl)ethyl)amino)-3-oxopropyl)-1,2,3,4-tetrahydroisoquinolin-7-yl)-5H-pyrrolo[2,3-b]pyrazin-7-yl)benzamide], for which the IC50 is 85 nM.

For the compound `Cc1cc(-c2c[nH]c3ncc(-c4cc(C)c5c(c4)CN(CCC(=O)NCC4CC4)CC5)nc23)ccc1C(=O)N(C)C` [Example 55, 4-(2-(2-(3-((cyclopropylmethyl)amino)-3-oxopropyl)-5-methyl-1,2,3,4-tetrahydroisoquinolin-7-yl)-5H-pyrrolo[2,3-b]pyrazin-7-yl)-N, N, 2-trimethylbenzamide], the IC50 was found to be 89 nM.

As a reminder, the IC50 is the concentration that gives 50% inhibition.
